Data: patent US20250171434A1, “SEC61 INHIBITORS AND USE THEREOF” (KEZAR LIFE SCIENCES, INC., priority 2022, published 2025)
Read-outs that look alike come from different tables or passages of the source. Blank lines part the entries; values can stand above or below the molecule they belong to.

Assays:
[1] = system: IL-2-FL/Gaussia Luciferase; experiment: Dox Inducible IL2-FL-Gluc Assay; format: cell-based
Method in brief: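 Stable Flp-In 293 T-REx line, Tet-regulated IL-2 (aa 1-153)–Gaussia luciferase fusion; hygromycin/blasticidin selected. Plated day -1; compound + doxycycline added next day; 37° C, 5% CO2.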

[2] = system: TNFα-FL/Gaussia Luciferase; experiment: Dox Induced TNFα-FL-Gluc Assay; format: cell-based
From the text: (§1) Flp-In 293 T-REx™ cells were transfected with pcDNA™5/FRT/TO plasmid inserted with cDNA encoding Gaussia Luciferase fused to the 3′ end of cDNA encoding full length TNFα (amino acids 1-233). Transfected cells were selected for resistance to the selectable markers Hygromycin and Blasticidin to create a stable cell line that contained the TNFα-FL/Gaussia Luciferase cDNA insert whose expression was regulated under the T-REx™ system. The day before assay, cells were trypsinized and plated in 384-well tissue culture plates. The next day, compound dilutions in DMSO/media containing doxycycline were added to the wells and incubated at 37° C., 5% CO2.
(§2) For chemical structures that include one or more stereoisomers, but are illustrated without indicating stereochemistry, the assay data refers to a mixture of stereoisomers.

[3] = system: PD1-ss+10aa/Gaussia Luciferase; experiment: Dox-Induced PD1-ss-Gluc Assay; format: cell-based
Method in brief: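 The cell line was made by transfecting Flp-In 293 T-REx cells with a PD1 signal sequence+10aa–Gaussia luciferase fusion under T-REx control and selecting with hygromycin and blasticidin. Cells were seeded, and next day compound plus doxycycline was added at 37 °C, 5% CO2.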

[4] = system: multiple myeloma cell line U266B1; experiment: U266 Cell Viability Assay; format: cell-based; details: Homo sapiens
Method in brief: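 Luminescent ATP read-out (CellTiter-Glo) after 48 h compound exposure at 37° C., 5% CO2; cells maintained in RPMI 1640/10% FBS/2 mM glutamine/pen-strep, compounds diluted in DMSO/media.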

[5] = Liver Microsome Stability Assay, monkey; format: in vitro ADME; details: monkey liver microsomes 1.0 mg/mL, 1.0 uM compound, 37° C., 1 mM NADPH
Method in brief: (§3)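 1.0 uM cpd, 0.4% DMSO, 1.0 mg/mL microsomes, 0.1 M KPi, 37° C, ±1 mM NADPH; quench 0 and 30 min.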

[6] = Liver Microsome Stability Assay, human; format: in vitro ADME; details: human liver microsomes 1.0 mg/mL, 1.0 uM compound, 37° C., 1 mM NADPH
Method in brief: as §3

[7] = system: multiple myeloma cell line NCI-H929; experiment: H929 Cell Viability Assay; format: cell-based, human; details: Homo sapiens
Method in brief: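 Cells in RPMI 1640/10% FBS; compound dilutions in DMSO/media; 48 h, 37° C, 5% CO2; CellTiter-Glo luciferase readout for viability.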

[8] = Liver Microsome Stability Assay, rat; format: in vitro ADME; details: rat liver microsomes 1.0 mg/mL, 1.0 uM compound, 37° C., 1 mM NADPH
Method in brief: as §3

[9] = Liver Microsome Stability Assay, mouse; format: in vitro ADME; details: mouse liver microsomes 1.0 mg/mL, 1.0 uM compound, 37° C., 1 mM NADPH
Method in brief: as §3

[10] = system: HER3-ss+4aa/Gaussia Luciferase; experiment: Dox-Inducible Her3-ss-Gluc Assay; format: cell-based
From the text: as §1, with “HER3 signal sequence plus 4 amino” for “full length TNFα (amino”, “(N-[…]-C) (SEQ ID NO: 2).” for “1-233).”, “HER3-ss+4aa/Gaussia” for “TNFα-FL/Gaussia”
as §2

[11] = Flp-In 293 T-REx cells, 24 hours with doxycycline; Table 3; read-out: 24 hr Dox Inducible IL2FLGluc 293FRT/TO: Mean IC50
[12] = ratio of IC50s IL2/PD1; Table 3
[13] = Flp-In 293 T-REx cells, 24 hours with doxycycline; Table 3; read-out: 24 hr Dox Inducible TNFaFLGluc 293FRT/TO: Mean IC50
[14] = ratio of IC50s TNF/PD1; Table 3
[15] = Flp-In 293 T-REx cells, 24 hours with doxycycline; Table 3; read-out: 24 hr Dox Inducible PD1ssGluc 293FRT/TO: Mean IC50
[16] = U-266, U266B1 cells, 48 hours, Celltiter-Glo, read-out: 48 hr U266 Viability Celltiter-Glo: Mean EC50
[17] = NCI-H929 cells, 48 hours, Celltiter-Glo, read-out: 48 hr H929 Viability Celltiter-Glo: Mean EC50
[18] = Flp-In 293 T-REx cells, 24 hours with doxycycline; Table 3; read-out: 24 hr Dox Inducible Her3(ss + 4)Gluc 293FRT/TO: Mean IC50

SMILES: Cc1sc(NC(=O)c2cccn2Cc2ccnc(F)c2)nc1/C=C/c1cn(C(C)C)cn1 [Compound B23, (E)-1-((2-fluoropyridin-4-yl)methyl)-N-(4-(2-(1-isopropyl-1H-imidazol-4-yl)vinyl)-5-methylthiazol-2-yl)-1H-pyrrole-2-carboxamide]
24 hr Dox Inducible IL2FLGluc 293FRT/TO: IL2/PD1 [1, 12]: >420 | IC50 ([1]; read-out: 24 hr Dox Inducible IL2FLGluc 293FRT/TO: Mean IC50; Flp-In 293 T-REx cells, 24 hours with doxycycline; Table 3): > 25000 nM | 24 hr Dox Inducible TNFaFLGluc 293FRT/TO: TNF/PD1 [2, 14]: >422 | IC50 ([2]; read-out: 24 hr Dox Inducible TNFaFLGluc 293FRT/TO: Mean IC50; Flp-In 293 T-REx cells, 24 hours with doxycycline; Table 3): > 25000 nM | IC50 ([3]; read-out: 24 hr Dox Inducible PD1ssGluc 293FRT/TO: Mean IC50; Flp-In 293 T-REx cells, 24 hours with doxycycline; Table 3): 59 nM | EC50 ([4]; U-266, 48 h, read-out: 48 hr U266 Viability Celltiter-Glo: Mean EC50 (nM)): > 25000 nM | Liver Microsome Stability (Multiple Species): Monkey - % Remaining after 30 min w/ NADPH (%) [5]: 1% | Liver Microsome Stability (Multiple Species): Human - % Remaining after 30 min w/ NADPH (%) [6]: <1% | EC50 ([7]; NCI-H929, 48 h, read-out: 48 hr H929 Viability Celltiter-Glo: Mean EC50 (nM)): > 25000 nM | Liver Microsome Stability (Multiple Species): Rat - % Remaining after 30 min w/ NADPH (%) [8]: 19% | Liver Microsome Stability (Multiple Species): Mouse - % Remaining after 30 min w/ NADPH (%) [9]: 16% | IC50 ([10]; read-out: 24 hr Dox Inducible Her3(ss + 4)Gluc 293FRT/TO: Mean IC50; Flp-In 293 T-REx cells, 24 hours with doxycycline; Table 3): 3390 nM

SMILES: O=C(Nc1nc(/C=C/c2ccc(Cl)cn2)cs1)c1cccn1Cc1ccnc(F)c1 [Compound B8, (E)-N-(4-(2-(5-chloropyridin-2-yl)vinyl)thiazol-2-yl)-1-((2-fluoropyridin-4-yl)methyl)-1H-pyrrole-2-carboxamide]
IC50 [1, 11]: 1680 nM | 24 hr Dox Inducible IL2FLGluc 293FRT/TO: IL2/PD1 [1, 12]: 69 | IC50 [2, 13]: 11200 nM | 24 hr Dox Inducible TNFaFLGluc 293FRT/TO: TNF/PD1 [2, 14]: 462 | IC50 [3, 15]: 24 nM | EC50 [4, 16]: > 25000 nM | Liver Microsome Stability (Multiple Species): Monkey - % Remaining after 30 min w/ NADPH (%) [5]: 4% | Liver Microsome Stability (Multiple Species): Human - % Remaining after 30 min w/ NADPH (%) [6]: 22% | EC50 [7, 17]: > 25000 nM | Liver Microsome Stability (Multiple Species): Rat - % Remaining after 30 min w/ NADPH (%) [8]: 1% | Liver Microsome Stability (Multiple Species): Mouse - % Remaining after 30 min w/ NADPH (%) [9]: 11% | IC50 [10, 18]: 1180 nM

SMILES: O=C(Nc1nc(/C=C/c2ncn(C3CC3)c2Cl)cs1)c1cc(Cl)cn1Cc1ccnc(F)c1 [Compound A12]
IC50 [1, 11]: 1530 nM | 24 hr Dox Inducible IL2FLGluc 293FRT/TO: IL2/PD1 [1, 12]: 150 | IC50 [2, 13]: 8540 nM | 24 hr Dox Inducible TNFaFLGluc 293FRT/TO: TNF/PD1 [2, 14]: 807 | IC50 [3, 15]: 11 nM | EC50 [4, 16]: > 25000 nM | Liver Microsome Stability (Multiple Species): Monkey - % Remaining after 30 min w/ NADPH (%) [5]: 5% | Liver Microsome Stability (Multiple Species): Human - % Remaining after 30 min w/ NADPH (%) [6]: 8% | EC50 [7, 17]: 10200 nM | Liver Microsome Stability (Multiple Species): Rat - % Remaining after 30 min w/ NADPH (%) [8]: 17% | Liver Microsome Stability (Multiple Species): Mouse - % Remaining after 30 min w/ NADPH (%) [9]: 78% | IC50 [10, 18]: 1150 nM

SMILES: O=C(Nc1nc(/C=C/c2ccc(C(F)(F)F)cn2)cs1)c1cccn1Cc1ccnc(F)c1 [Compound B5, (E)-1-((2-fluoropyridin-4-yl)methyl)-N-(4-(2-(5-(trifluoromethyl)pyridin-2-yl)vinyl)thiazol-2-yl)-1H-pyrrole-2-carboxamide]
IC50 [1, 11]: 1200 nM | 24 hr Dox Inducible IL2FLGluc 293FRT/TO: IL2/PD1 [1, 12]: 70 | IC50 [2, 13]: 3940 nM | 24 hr Dox Inducible TNFaFLGluc 293FRT/TO: TNF/PD1 [2, 14]: 230 | IC50 [3, 15]: 17 nM | EC50 [4, 16]: > 25000 nM | Liver Microsome Stability (Multiple Species): Monkey - % Remaining after 30 min w/ NADPH (%) [5]: <1% | Liver Microsome Stability (Multiple Species): Human - % Remaining after 30 min w/ NADPH (%) [6]: 4% | EC50 [7, 17]: > 25000 nM | Liver Microsome Stability (Multiple Species): Rat - % Remaining after 30 min w/ NADPH (%) [8]: 20% | Liver Microsome Stability (Multiple Species): Mouse - % Remaining after 30 min w/ NADPH (%) [9]: 20% | IC50 [10, 18]: 553 nM

More lines, main results first:

IC50 [1, 11]: 265 nM | IC50 [2, 13]: 445 nM | IC50 [3, 15]: 31 nM | EC50 [4, 16]: > 25000 nM | Liver Microsome Stability (Multiple Species): Monkey - % Remaining after 30 min w/ NADPH (%) [5]: 24% | Liver Microsome Stability (Multiple Species): Human - % Remaining after 30 min w/ NADPH (%) [6]: 42% | EC50 [7, 17]: > 25000 nM | Liver Microsome Stability (Multiple Species): Rat - % Remaining after 30 min w/ NADPH (%) [8]: 41% | Liver Microsome Stability (Multiple Species): Mouse - % Remaining after 30 min w/ NADPH (%) [9]: 63% | IC50 [10, 18]: 137 nM
SMILES: O=C(Nc1nc(/C=C/c2ccc(OC3CC3)cc2F)cs1)c1cccn1Cc1ccnc(F)c1 [Compound B6, (E)-N-(4-(4-cyclopropoxy-2-fluorostyryl)thiazol-2-yl)-1-((2-fluoropyridin-4-yl)methyl)-1H-pyrrole-2-carboxamide]
24 hr Dox Inducible IL2FLGluc 293FRT/TO: IL2/PD1 [1, 12]: 9 | 24 hr Dox Inducible TNFaFLGluc 293FRT/TO: TNF/PD1 [2, 14]: 14

IC50 [1, 11]: 737 nM | IC50 [2, 13]: 3820 nM | IC50 [3, 15]: 117 nM | EC50 [4, 16]: 19700 nM | Liver Microsome Stability (Multiple Species): Monkey - % Remaining after 30 min w/ NADPH (%) [5]: <1% | Liver Microsome Stability (Multiple Species): Human - % Remaining after 30 min w/ NADPH (%) [6]: 59% | EC50 [7, 17]: 7130 nM | Liver Microsome Stability (Multiple Species): Rat - % Remaining after 30 min w/ NADPH (%) [8]: 10% | Liver Microsome Stability (Multiple Species): Mouse - % Remaining after 30 min w/ NADPH (%) [9]: 31% | IC50 [10, 18]: 332 nM
SMILES: O=C(Nc1nc(/C=C/C2CCCC2)cs1)c1cccn1Cc1ccnc(F)c1 [Compound B26, (E)-N-(4-(2-cyclopentylvinyl)thiazol-2-yl)-1-((2-fluoropyridin-4-yl)methyl)-1H-pyrrole-2-carboxamide]
24 hr Dox Inducible IL2FLGluc 293FRT/TO: IL2/PD1 [1, 12]: 6 | 24 hr Dox Inducible TNFaFLGluc 293FRT/TO: TNF/PD1 [2, 14]: 33
